Laboratory results taken from PMC5397059, “Design, synthesis and structure-activity relationship study of wollamide B; a new potential anti TB agent” (PLoS ONE, 2017).
Converted amounts (≈) assume the structure as drawn. Read-outs that look alike come from different tables or passages of the source. Non-standard residues stand in square brackets, D forms with d. Residues, ends and D or L forms follow the SMILES beside them. dPhe(4-Cl) = N[C@H](Cc1ccc(Cl)cc1)C(=O)O; dOrn = NCCC[C@@H](N)C(=O)O

What was measured:
[1] = Chemi-Luminescent Nitrogen Detection (CLND) kinetic solubility assay; format: physicochemical; conditions: phosphate buffered saline, pH 7.4; kinetic aqueous solubility by CLND; read-out: Solubility
Protocol: GSK in-house kinetic solubility assay: 5 μL of 10mM DMSO stock solution diluted to 100 uL with pH7.4 phosphate buffered saline, equilibrated for 1 hour at room temperature, filtered through Millipore Multiscreen HTS-PCF filter plates (MSSL BPC).
The filtrate is quantified by suitably calibrated flow injection CLND. The standard error of the CLND solubility determination is ±30 μM, the upper limit of the solubility is 500 μM when working from 10 mM DMSO stock solution.

[2] = Chrom logD assay; format: physicochemical; conditions: pH 7.4, read-out: Log D
Protocol: The Chromatographic Hydrophobicity Index (CHI) values were measured using a reversed phase HPLC column (50 x 2 mmx 3 μMGemini NX C18, Phenomenex, UK) with fast acetonitrile gradient at starting mobile phase of 100% pH = 7.4 buffer. CHI values are derived directly from the gradient retention times by using a calibration line obtained for standard compounds. The CHI value approximates to the volume % organic concentration when the compound elutes. CHI is linearly transformed into ChromlogD by the formula: ChromlogD=0.0857CHI−2.00
The average error of the assay is ±3 CHI unit or ±0.25 ChromlogD.

[3] = Artificial membrane permeability assay; format: in vitro ADME; conditions: PAMPA, pH 7.4; passive artificial membrane permeability; read-out: Permeability
Protocol: A 8% L-a-phosphatidylcholine (EPC) in 1% cholesterol decane solution and a 1.8% EPC in cholesterol decane solution were prepared. The lipid solution was then aliquoted into 4 mL capped vials, sealed with parafilm and stored in-20°Cfreezer. The lipid solution was then transferred from 4 mL vial into 96-well half area plate (130μL/well) for daily assay usage. An additional 50 mM phosphate buffer with 0.5% encapsin, pH at 7.4 was prepared. The assay was run by the Biomek FX and Biomek software. The assay procedure is written under the Biomek software. For one batch assay, it can test two 96-well sample plates with at least one standard on each sample plate. The total assay time was about 4 hours. 3.5 μL of lipid solution were added to the filler plate, shaken for 12 seconds, and 250 μL of buffer were added to donor side and 100 μL to the receiver side. The assay plate was shaken for 45 min before adding the compounds. The test compounds (2.5 μL) were added to the donor side. The assay was run as replicates: Assay plates1 and 2 tested the sample plate 1; assay plates 3 and 4 tested the sample plate 2. The assay plates were then incubated and shaken for 3 hours at room temperature.
The assay samples were transferred to the HPLC analysis plates and 100 μL of receiver solution were aspirated and transferred to the receiver for analysis. Similarly, another 100 μL from the donor solution were transferred to the donor analysis plate.
Compound concentration was measured by HPLC at different time-points and permeability was established as nm/sec.

[4] = biological target: human serum albumin (Homo sapiens, UniProt P02768); assay: Human serum albumin (HSA) binding assay; format: in vitro ADME; conditions: human serum albumin binding
Protocol: HSA binding assay was performed according to the method described by Valko K, et al. The basic principle of the measurements is the determination of gradient retention times of compounds on immobilized HSA column and converting these retention times to the appropriate property values using calibration. The peaks are detected and identified by UV. Calibration sets of compounds are measured before each run for which the HSA binding values are known. The retention times of the calibration set of compounds are plotted against these known values. The slope and the intercept of the obtained straight lines are used to calculate the HSA binding for the unknown compounds.

[5] = Plasma stability assay, mouse plasma; format: in vitro ADME; conditions: CD1, mouse, plasma; 2 hours at 37°C, triplicates; read-out: Plasma stability (% remaining) Mouse
Protocol: (§1) Plasma stability of the compounds was assessed in CD1 mouse and human plasma. Plasma was spiked with 1 μL of a 10 mM of each test compound solution to produce a 1 uM incubation. Three separate 300 μl aliquots were then taken from each tube and incubated at 37°C for 2 h. At each time point (0, 15, 30, 60 and 120 min), 50 μL of plasma were collected from each sample. Samples were extracted by protein precipitation with 250 μL of 0.1% AcOH acetonitrile methanol 3–1 (v/v) containing 1uM internal standard and centrifuged for 10min at 2800rpm. Supernatants were collected prior the injection onto an LC-MS/MS system. Analyte/Internal standard peak area ratios were referenced to the zero time-point samples as 100% in order to determine the percentage of compound remaining for each time-point. Ln plots of the % remaining for each compound were used to determine the half-life for the plasma incubations.

[6] = Plasma stability assay, human plasma; format: in vitro ADME; conditions: human, plasma; 2 hours at 37°C, triplicates; read-out: Plasma stability (% remaining) Human
Protocol: as §1

[7] = Intrinsic clearance (CLint) assay, mouse liver microsomes; format: in vitro ADME; conditions: for % LBF Mouse: liver blood flow; for CLint Mouse: mouse liver microsomes; for half-life at 0.5 µM: mouse, pooled mouse liver microsomes, pH 7.4, read-out: Microsomal t1/2 Mouse; for CLpred Mouse: predicted metabolic clearance
Protocol: (§2) Pooled mouse and human liver microsomes are purchased from Xenotech. Microsomes (final protein concentration 0.5 mg/mL, MgCl2 (final concentration = 5 mM) and test compound (final substrate concentration = 0.5] M; final DMSO concentration = 0.5%) in 0.1 M phosphate buffer pH 7.4 are pre-incubated at 37°C prior to the addition of NADPH (final concentration = 1 mM) to initiate the reaction. The final incubation volume is 600 μL.
(§3) Control incubation is included for each compound tested where 0.1 M phosphate buffer pH 7.4 is added instead of NADPH (minus NADPH). One control compound is included with each species. All incubations are performed singularly for each test compound. Each compound is incubated for 45 minutes and samples (100 μL) of incubate are taken at 0, 5, 15, 30 and 45 min. The control (minus NADPH) is sampled at 30 min only. The reactions are stopped by the addition of sample to 200 μL Acetonitrile: Methanol 3:1 containing internal standard. The terminated samples are centrifuged at 2,500 rpm for 20 min at 4°C to precipitate the protein. Quantitative analysis: following protein precipitation, the samples were analyzed using specific LC-MS/MS conditions. Data analysis: from a plot of ln peak area ratio (compound peak area/internal standard peak area) against time, the gradient of the line was determined. Subsequently, half-life and intrinsic clearance were calculated using the equations below: Eliminationrateconstant(K)=(−gradient) Halflife(t1/2)(min)=0.693/K Cli(mL/min/gprotien)=V×0.693/t1/2 WhereV=Incubationvolume(mL/gmicrosomalprotien)

[8] = Intrinsic clearance (CLint) assay, human liver microsomes; format: in vitro ADME; conditions: for CLint Human: human liver microsomes; for half-life at 0.5 µM: human, pooled human liver microsomes, pH 7.4, human liver microsomes, read-out: Microsomal t1/2 Human; for % LBF Human: liver blood flow; for CLpred Human: predicted metabolic clearance
Protocol: as §2, §3

[9] = test system: Mtb H37Rv; conditions: for antimycobacterial activity against Mtb H37Rv: at the maximum dose tested; for MIC against Mtb H37Rv: duplicate, analogues
[10] = reversed phase HPLC column (Gemini NX C18)

human serum albumin, sequence (P02768 25-609): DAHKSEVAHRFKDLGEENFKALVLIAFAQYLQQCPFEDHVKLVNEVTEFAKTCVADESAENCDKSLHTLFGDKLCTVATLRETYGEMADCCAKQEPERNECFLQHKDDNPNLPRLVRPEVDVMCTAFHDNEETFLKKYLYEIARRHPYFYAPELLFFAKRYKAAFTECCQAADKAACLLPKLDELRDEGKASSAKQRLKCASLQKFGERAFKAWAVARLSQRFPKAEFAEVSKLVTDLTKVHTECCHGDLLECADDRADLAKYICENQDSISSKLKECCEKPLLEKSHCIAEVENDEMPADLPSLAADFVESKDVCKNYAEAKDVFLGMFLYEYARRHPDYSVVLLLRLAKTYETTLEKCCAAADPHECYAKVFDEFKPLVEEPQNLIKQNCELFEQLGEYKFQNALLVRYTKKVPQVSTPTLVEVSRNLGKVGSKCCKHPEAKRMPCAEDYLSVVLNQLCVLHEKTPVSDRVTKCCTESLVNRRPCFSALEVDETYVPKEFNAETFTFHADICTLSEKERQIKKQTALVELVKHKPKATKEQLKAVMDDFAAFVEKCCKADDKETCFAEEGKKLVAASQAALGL

Structure (SMILES) | solubility kinetic at 1 h [1] [µg/mL] | chromatographic logD [2] | Papp at 3 h [3] [×10⁻⁶ cm/s] | % HSA [4] [%] | remaining at 2 h, 1 uM [5] [%] | remaining at 2 h, 1 uM [6] [%] | % LBF Mouse [7] [%] | CLint Mouse [7] [mL/min/g tissue] | half-life at 0.5 µM [7] [h] | CLpred Mouse [7] [mL/min/kg] | CLint Human [8] [mL/min/g tissue] | half-life at 0.5 µM [8] [h] | % LBF Human [8] [%] | CLpred Human [8] [mL/min/kg] | chromatographic logD [2, 10] | antimycobacterial activity against Mtb H37Rv [9] | MIC against Mtb H37Rv [9] [µM] | % LBF given as a fraction (metabolic stability class) ([8]; predicted hepatic clearance, microsomal stability)
CC[C@H](C)[C@@H]1NC(=O)[C@@H](CC(C)C)NC(=O)[C@H](CC(C)C)NC(=O)[C@H](Cc2c[nH]c3ccccc23)NC(=O)[C@@H](CCCN)NC(=O)[C@H](CC(N)=O)NC1=O [Compound 7c] (cyclo(IN[dOrn]WL[dL])) | ≥ 177 | 1.83 | < 1 | 76.35 | 98 | 99 | <16.27 | <0.48 | > 2.31 | <20.50 | 1.70 | 0.54 | 69.81 | 12.57 | – | – | – | –
CSCC[C@@H]1NC(=O)[C@@H](CC(C)C)NC(=O)[C@H](CC(C)C)NC(=O)[C@H](Cc2c[nH]c3ccccc23)NC(=O)[C@@H](CCCN)NC(=O)[C@H](CC(N)=O)NC1=O [Compound 8c] (cyclo(L[dL]MN[dOrn]W)) | ≥ 164 | – | < 1 | 73.79 | – | – | <16.30 | <0.48 | > 2.31 | – | 1.79 | 0.511 | 70.90 | 12.76 | 1.78 | complete loss of activity | >80 | –
CC(C)C[C@@H]1NC(=O)[C@H](Cc2c[nH]c3ccccc23)NC(=O)[C@@H](CCCN)NC(=O)[C@@H](CCCN)NC(=O)[C@H](C(C)C)NC(=O)[C@@H](CC(C)C)NC1=O [Compound 9c] (cyclo(L[dL]V[dOrn][dOrn]W)) | 39 (≈ 52.7 µM) | 1.32 | 1 | 86.46 | 100 | 100 | 18.68 | 0.57 | 1.95 | 23.53 | 0.45 | 2.03 | 38.08 | 6.85 | – | – | – | < 1/3
CC[C@H](C)[C@@H]1NC(=O)[C@H]([C@@H](C)CC)NC(=O)[C@@H](CC(C)C)NC(=O)[C@H](CC(C)C)NC(=O)[C@H](Cc2c[nH]c3ccccc23)NC(=O)[C@@H](CCCN)NC1=O [Compound 12c] (cyclo(II[dOrn]WL[dL])) | ≥ 206 | – | 1.9 | 96.06 | – | – | <16.39 | <0.48 | > 2.31 | <20.50 | 5.93 | 0.155 | 88.98 | 16.02 | 2.94 | – | 3.1 (≈ 2.33 µg/mL) | –
CC(C)C[C@H]1NC(=O)[C@@H](Cc2ccc(Cl)cc2)NC(=O)[C@H](Cc2c[nH]c3ccccc23)NC(=O)[C@@H](CCCN)NC(=O)[C@H](CC(N)=O)NC(=O)[C@H](C(C)C)NC1=O [Compound 17c] (cyclo(N[dOrn]W[dPhe(4-Cl)][dL]V)) | ≥ 230 | – | 1.7 | 93.83 | – | – | 17.9 | 0.54 | 2.06 | 22.60 | <0.40 | > 2.31 | <35.08 | <6.35 | 2.12 | – | 30 (≈ 24.3 µg/mL) | –
CC[C@H](C)[C@@H]1NC(=O)[C@H](Cc2c[nH]c3ccccc23)NC(=O)[C@@H](CCCN)NC(=O)[C@H](CC(N)=O)NC(=O)[C@H](C(C)C)NC(=O)[C@@H](CC(C)C)NC1=O [Compound 19c] (cyclo(I[dL]VN[dOrn]W)) | ≥ 183 | – | < 1 | 67.10 | – | – | <16.3 | <0.48 | > 2.31 | <20.50 | <0.40 | > 2.31 | <35.08 | <6.35 | 1.73 | – | 7.5 (≈ 5.55 µg/mL) | –
CC[C@H](C)[C@@H]1NC(=O)[C@H](CC(C)C)NC(=O)[C@H](Cc2c[nH]c3ccccc23)NC(=O)[C@@H](CCCN)NC(=O)[C@H](CC(N)=O)NC(=O)[C@H](C(C)C)NC1=O [Compound 20c] (cyclo(IVN[dOrn]WL)) | ≥ 195 | – | < 0.3 | 83.67 | – | – | <16.3 | <0.48 | > 2.31 | <20.50 | <0.40 | > 2.31 | <35.08 | <6.35 | 1.83 | completely abolished the activity | >80 | –
